pKi: −log10 of the molar value. Read-outs that look alike come from different tables or passages of the source.
Target: GST-Bcl-2 (Homo sapiens (Human), UniProt P10415)
Assay: Time Resolved-Fluorescence Resonance Energy Transfer (TR-FRET) Bcl-2 binding assay
Method in brief: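 Ki values derived from TR-FRET displacement of F-Bak peptide from GST-Bcl-2, detected with Tb-labelled anti-GST antibody (ex 340, em 520/495 nm). Compound dilution series started at 50 μM (2× starting concentration); room-temperature incubation 3 hours.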

[1] = GST-Bcl-2 1 nM, F-Bak peptide probe 100 nM, Tb-anti-GST antibody 1 nM, Ki by Wang's equation

Sequence of GST-Bcl-2 (P10415 whole entry): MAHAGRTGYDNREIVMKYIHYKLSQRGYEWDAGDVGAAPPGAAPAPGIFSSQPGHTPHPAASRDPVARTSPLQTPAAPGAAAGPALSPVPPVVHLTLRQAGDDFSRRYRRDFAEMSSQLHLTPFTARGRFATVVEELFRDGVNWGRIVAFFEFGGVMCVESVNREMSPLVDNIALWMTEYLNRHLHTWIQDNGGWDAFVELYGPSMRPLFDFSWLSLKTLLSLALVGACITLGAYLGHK

SMILES | pKi [1] | pKi
COc1cccc(Oc2cc(N3CCN(Cc4ccccc4-c4ccc(Cl)cc4)CC3)ccc2C(=O)NS(=O)(=O)c2ccc(NCC3CCOCC3)c([N+](=O)[O-])c2)c1 [Example 20, 4-(4-((4′-chloro-1,1′-biphenyl-2-yl)methyl)piperazin-1-yl)-2-(3-methoxyphenoxy)-N-((3-nitro-4-((tetrahydro-2H-pyran-4-ylmethyl)amino)phenyl)sulfonyl)benzamide] | 8.40 | –
CN(C)CCCc1c[nH]c2cccc(Oc3cc(N4CCN(CC5=C(c6ccc(Cl)cc6)CC(C)(C)CC5)CC4)ccc3C(=O)NS(=O)(=O)c3ccc(NCC4CCOCC4)c([N+](=O)[O-])c3)c12 [Example 339, 4-(4-{[2-(4-chlorophenyl)-4,4-dimethylcyclohex-1-en-1-yl]methyl}piperazin-1-yl)-2-({3-[3-(dimethylamino)propyl]-1H-indol-4-yl}oxy)-N-({3-nitro-4-[(tetrahydro-2H-pyran-4-ylmethyl)amino]phenyl}sulfonyl)benzamide] | 10.24 | –
CO[C@H]1CC[C@H](CNc2ccc(S(=O)(=O)NC(=O)c3ccc(N4CCN(CC5=C(c6ccc(Cl)cc6)CC(C)(C)CC5)CC4)cc3Oc3ccc(NCC(F)F)nc3)cc2[N+](=O)[O-])CC1 [Example 375, Trans-4-(4-{[2-(4-chlorophenyl)-4,4-dimethylcyclohex-1-en-1-yl]methyl}piperazin-1-yl)-2-({6-[(2,2-difluoroethyl)amino]pyridin-3-yl}oxy)-N-[(4-{[(4-methoxycyclohexyl)methyl]amino}-3-nitrophenyl)sulfonyl]benzamide] | – | 6.48
CC1(C)CCC(CN2CCN(c3ccc(C(=O)NS(=O)(=O)c4ccc(NCC5COCCO5)c([N+](=O)[O-])c4)c(Oc4cc5cc[nH]c5cc4Cl)c3)CC2)=C(c2ccc(Cl)cc2)C1 (centres unmarked) [Example 291, 2-[(6-chloro-1H-indol-5-yl)oxy]-4-(4-{[2-(4-chlorophenyl)-4,4-dimethylcyclohex-1-en-1-yl]methyl}piperazin-1-yl)-N-({4-[(1,4-dioxan-2-ylmethyl)amino]-3-nitrophenyl}sulfonyl)benzamide] | 9.56 | –
CC1(C)CCC(CN2CCN(c3ccc(C(=O)NS(=O)(=O)c4ccc(NCC5CCOCC5)c([N+](=O)[O-])c4)c(Oc4ccccc4-c4cccnc4N)c3)CC2)=C(c2ccc(Cl)cc2)C1 [Example 407, 2-[2-(2-aminopyridin-3-yl)phenoxy]-4-(4-{[2-(4-chlorophenyl)-4,4-dimethylcyclohex-1-en-1-yl]methyl}piperazin-1-yl)-N-({3-nitro-4-[(tetrahydro-2H-pyran-4-ylmethyl)amino]phenyl}sulfonyl)benzamide] | 9.02 | –
C=CCN1CCC(Nc2ccc(S(=O)(=O)NC(=O)c3ccc(N4CCN(CC5=C(c6ccc(Cl)cc6)CC(C)(C)CC5)CC4)cc3Oc3cccc(F)c3F)cc2[N+](=O)[O-])CC1 [Example 146, N-({4-[(1-allylpiperidin-4-yl)amino]-3-nitrophenyl}sulfonyl)-4-(4-{[2-(4-chlorophenyl)-4,4-dimethylcyclohex-1-en-1-yl]methyl}piperazin-1-yl)-2-(2,3-difluorophenoxy)benzamide] | 10.40 | –
CC1(C)CCC(CN2CCN(c3ccc(C(=O)NS(=O)(=O)c4ccc(NCC5CCOCC5)c([N+](=O)[O-])c4)c(Oc4cncc(Br)c4)c3)CC2)=C(c2ccc(Cl)cc2)C1 [Example 274, 2-[(5-bromopyridin-3-yl)oxy]-4-(4-{[2-(4-chlorophenyl)-4,4-dimethylcyclohex-1-en-1-yl]methyl}piperazin-1-yl)-N-({3-nitro-4-[(tetrahydro-2H-pyran-4-ylmethyl)amino]phenyl}sulfonyl)benzamide] | 9.03 | –
CN1CCC(Nc2ccc(S(=O)(=O)NC(=O)c3ccc(N4CCN(CC5=C(c6ccc(Cl)cc6)CC(C)(C)OC5)CC4)cc3Oc3cccc(F)c3F)cc2[N+](=O)[O-])CC1 [Example 145, 4-(4-{[4-(4-chlorophenyl)-6,6-dimethyl-5,6-dihydro-2H-pyran-3-yl]methyl}piperazin-1-yl)-2-(2,3-difluorophenoxy)-N-({4-[(1-methylpiperidin-4-yl)amino]-3-nitrophenyl}sulfonyl)benzamide] | 10.24 | –

From patent publication US8952157B2, “Apoptosis-inducing agents for the treatment of cancer and immune and autoimmune diseases” (AbbVie Inc., priority 2008, dated 2015)
